Test results published in publication PMC8508980, “Design, Synthesis and Anticancer Profile of New 4-(1H-benzo[d]imidazol-1-yl)pyrimidin-2-amine-Linked Sulfonamide Derivatives with V600EBRAF Inhibitory Effect” (International Journal of Molecular Sciences, 2021).

Assays:
Assay in all cases: NCI 60 cell line screen
786-0 = format: cell-based; details: Homo sapiens; 786-0, Renal Cancer; read-out: Percent growth
How it was run: (§1)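 SRB read-out (515 nm) after 48 h drug exposure, 37 °C, RPMI 1640/5% FBS; five-point dilution series, top conc. 10 µM. Percent growth from Tz, control and treated absorbances; GI50 and TGI derived.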

DU-145 = format: cell-based; details: Homo sapiens; DU-145, Prostate Cancer; read-out: Percent growth
How it was run: as §1

HCT-116 = format: cell-based; details: Homo sapiens; HCT-116, Colon Cancer; read-out: Percent growth
How it was run: as §1

MDA-MB-435 = format: cell-based; details: Homo sapiens; MDA-MB-435, Melanoma; read-out: Percent growth
How it was run: as §1

OVCAR-3 = format: cell-based; details: Homo sapiens; OVCAR-3, Ovarian Cancer; read-out: Percent growth
How it was run: as §1

SF-268 = format: cell-based; details: Homo sapiens; SF-268, CNS-Cancer; read-out: Percent growth
How it was run: as §1

SK-MEL-28 = format: cell-based; details: Homo sapiens; SK-MEL-28, Melanoma; read-out: Percent growth
How it was run: as §1

SK-OV-3 = format: cell-based; details: Homo sapiens; SK-OV-3, Ovarian Cancer; read-out: Percent growth
How it was run: as §1

SNB-19 = format: cell-based; details: Homo sapiens; SNB-19, CNS-Cancer; read-out: Percent growth
How it was run: as §1

CAKI-1 = format: cell-based, human; details: Homo sapiens; CAKI-1, Renal Cancer; read-out: Percent growth
Method: (§2) Anticancer profiling over a panel of 60 cancer cell lines was carried out at the National Cancer Institute (NCI), Bethesda, Maryland, USA, https://dtp.cancer.gov/discovery_development/nci-60/methodology.htm (Last visit 22 September 2021), using the standard procedure (detailed procedure is located in the Supplementary Information page 50 s).
(§3) NCI standard procedure for 60 cell lines assay
(§4) The human tumor cell lines of the cancer screening panel are grown in RPMI 1640 mediu m containing 5% fetal bovine serum and 2 mM L-glutamine. For a typical screening experiment, cells are inoculated into 96 well microtiter plates in 100 μL at plating densities ranging from 5,000 to 40,000 cells/well depending on the doubling time of individual cell lines. After cell inoculation, the microtiter plates are incubated at 37° C, 5 % CO2, 95 % air and 100 % relative humidity for 24 h prior to addition of experimental drugs.
(§5) After 24 h, two plates of each cell line are fixed in situ with TCA, to represent a measurement of the cell population for each cell line at the time of drug addition (Tz). Experimental drugs are solubilized in dimethyl sulfoxide at 400-fold the desired final maximum test concentration (10 µM) and stored frozen prior to use. At the time of drug addition, an aliquot of frozen concentrate is thawed and diluted to twice the desired final maximum test concentration with co mp lete medium containing 50 μg/ml gentamicin. Additional four, 10-fold or ½ log serial dilutions are made to provide a total of five drug concentrations plus control. Aliquots of 100 μl of these different drug dilutions are added to the appropriate microtiter wells already containing 100 μl of medium, resulting in the required final drug concentrations.
(§6) Following drug addition, the plates are incubated for an additional 48 h at 37°C, 5 % CO2, 95 % air, and 100 % relative humidity. For adherent cells, the assay is terminated by the addition of cold TCA. Cells are fixed in situ by the gentle addition of 50 μl of cold 50 % (w/v) TCA (final concentration, 10 % TCA) and incubated for 60 minutes at 4°C. The supernatant is discarded, and the plates are washed five times with tap water and air dried. Sulforhodamine B (SRB) solution (100 μl) at 0.4 % (w/v) in 1 % acetic acid is added to each well, and plates are incubated for 10 minutes at room temperature. After staining, unbound dye is removed by washing five times with 1 % acetic acid and the plates are air dried. Bound stain is subsequently solubilized with 10 mM trizma base, and the absorbance is read on an automated plate reader at a wavelength of 515 nm. For suspension cells, the methodology is the same except that the assay is terminated by fixing settled cells at the bottom of the wells by g ently adding 50 μl of 80 % TCA (final concentration, 16 % TCA). Using the seven absorbance measurements [time zero, (Tz), control growth, (C), and test growth in the presence of drug at the five concentration levels (Ti)], the percentage growth is calculated at each of the drug concentrations levels. Percentage growth inhibition is calculated as:
(§7) [(Ti-Tz)/(C-Tz)] x 100 for concentrations for which Ti>/=Tz
(§8) [(Ti-Tz)/Tz] x 100 for concentrations for which Ti<Tz.
(§9) Three dose response parameters are calculated for each experimental agent. Growth inhibition of […]
(§10) resulting in a 50% reduction in the net protein increase (as measured by SRB staining) in control cells during the drug incubation. The drug concentration resulting in total growth inhibition […]
(§11) (TGI) is calculated from Ti = Tz.

HT29 = format: cell-based, human; details: Homo sapiens, HT-29; HT29, Colon Cancer; read-out: Percent growth
Method: as §2, §3, §4, §5, §6, §7, §8, §9, §10, §11

K-562 = format: cell-based, human; details: Homo sapiens, K562; K-562, Leukemia; read-out: Percent growth
Method: as §2, §3, §4, §5, §6, §7, §8, §9, §10, §11

KM12 = format: cell-based, human; details: Homo sapiens; KM12, Colon Cancer; read-out: Percent growth
Method: as §2, §3, §4, §5, §6, §7, §8, §9, §10, §11

MDA-MB-468 = format: cell-based, human; details: Homo sapiens; MDA-MB-468, Breast Cancer; read-out: Percent growth
Method: as §2, §3, §4, §5, §6, §7, §8, §9, §10, §11

MOLT-4 = format: cell-based, human; details: Homo sapiens; MOLT-4, Leukemia; read-out: Percent growth
Method: as §2, §3, §4, §5, §6, §7, §8, §9, §10, §11

NCI-H226 = format: cell-based, human; details: Homo sapiens; NCI-H226, Non-Small Cell Lung Cancer; read-out: Percent growth
Method: as §2, §3, §4, §5, §6, §7, §8, §9, §10, §11

NCI-H23 = format: cell-based, human; details: Homo sapiens; NCI-H23, Non-Small Cell Lung Cancer; read-out: Percent growth
Method: as §2, §3, §4, §5, §6, §7, §8, §9, §10, §11

NCI/ADR-RES = format: cell-based, human; details: Homo sapiens, Ovarian Cancer, read-out: Percent growth
Method: as §2, §3, §4, §5, §6, §7, §8, §9, §10, §11

OVCAR-4 = format: cell-based, human; details: Homo sapiens; OVCAR-4, Ovarian Cancer; read-out: Percent growth
Method: as §2, §3, §4, §5, §6, §7, §8, §9, §10, §11

SK-MEL-5 = format: cell-based, human; details: Homo sapiens; SK-MEL-5, Melanoma; read-out: Percent growth
Method: as §2, §3, §4, §5, §6, §7, §8, §9, §10, §11

U251 = format: cell-based, human; details: Homo sapiens, U-251; U251, CNS-Cancer; read-out: Percent growth
Method: as §2, §3, §4, §5, §6, §7, §8, §9, §10, §11

Row | Compound | activity at 10 µM (786-0) [%] | activity at 10 µM (DU-145) [%] | activity at 10 µM (HCT-116) [%] | activity at 10 µM (MDA-MB-435) [%] | activity at 10 µM (OVCAR-3) [%] | activity at 10 µM (SF-268) [%] | activity at 10 µM (SK-MEL-28) [%] | activity at 10 µM (SK-OV-3) [%] | activity at 10 µM (SNB-19) [%] | activity at 10 µM (CAKI-1) [%] | activity at 10 µM (HT29) [%] | activity at 10 µM (K-562) [%] | activity at 10 µM (KM12) [%] | activity at 10 µM (MDA-MB-468) [%] | activity at 10 µM (MOLT-4) [%] | activity at 10 µM (NCI-H226) [%] | activity at 10 µM (NCI-H23) [%] | activity at 10 µM (NCI/ADR-RES) [%] | activity at 10 µM (OVCAR-4) [%] | activity at 10 µM (SK-MEL-5) [%] | further results
1 | O=S(=O)(NCCNc1nccc(-n2cnc3ccccc32)n1)c1ccccc1 [12a, N-(2-((4-(1H-benzo [d]imidazol-1-yl)pyrimidin-2-yl)amino)ethyl)benzenesulfonamide] | 103 | 109 | 94.6 | 109 | 109 | 94.1 | 108 | 101 | 99.6 | 83.7 | 102 | 84.8 | 100 | 94.3 | 93.7 | 84.6 | 96.4 | 104 | 93.4 | 95.8 | activity at 10 µM (U251): 103%
2 | COc1ccc(S(=O)(=O)NCCCNc2nccc(-n3cnc4ccccc43)n2)cc1 [12m, N-(3-((4-(1H-benzo [d]imidazol-1-yl)pyrimidin-2-yl)amino)propyl)-4-methoxy benzenesulfonamide] | 95.9 | 100 | 89.9 | 98.7 | 105 | 91.6 | 106 | 96.2 | 100 | 68.8 | 99.7 | 78.8 | 84.1 | 77.2 | 77 | 73.2 | 91.9 | 105 | 77.4 | 70.1 | activity at 10 µM (U251): 94.5%
3 | O=S(=O)(NCCNc1nccc(-n2cnc3ccccc32)n1)c1ccc(Br)cc1 [12d, N-(2-((4-(1H-benzo [d]imidazol-1-yl)pyrimidin-2-yl)amino)ethyl)-4-bromobenzenesulfonamide] | 103 | 99.9 | 99.8 | 108 | 103 | 91.2 | 108 | 99.9 | 101 | 81.5 | 97.2 | 88.4 | 85.4 | 84 | 95.9 | 76.5 | 97.3 | 97.6 | 82.2 | 89.1 | activity at 10 µM (U251): 98.6%
4 | COc1ccc(S(=O)(=O)NCCNc2nccc(-n3cnc4ccccc43)n2)cc1 [12f, N-(2-((4-(1H-benzo [d]imidazol-1-yl)pyrimidin-2-yl)amino)ethyl)-4-methoxy benzenesulfonamide] | 93 | 99.9 | 98 | 96.6 | 103 | 86.7 | 97.9 | 97.5 | 95.3 | 79.6 | 100 | 93 | 93.2 | 80.3 | 93.3 | 80.6 | 96.9 | 98.7 | 84.3 | 92.2 | activity at 10 µM (U251): 103%
5 | O=S(=O)(NCCNc1nccc(-n2cnc3ccccc32)n1)c1ccc(Cl)cc1 [12c, N-(2-((4-(1H-benzo [d]imidazol-1-yl)pyrimidin-2-yl)amino)ethyl)-4-chlorobenzenesulfonamide] | 99 | 104 | 94.6 | 100 | 106 | 92.3 | 101 | 112 | 97.7 | 87.4 | 103 | 97.6 | 97.1 | 101 | 103 | 91.1 | 101 | 97.8 | 95.2 | 99.4 | activity at 10 µM (U251): 102%
6 | O=S(=O)(NCCCNc1nccc(-n2cnc3ccccc32)n1)c1ccc(Cl)cc1 [12j, N-(3-((4-(1H-benzo [d]imidazol-1-yl)pyrimidin-2-yl)amino)propyl)-4-chloro benzenesulfonamide] | 103 | 100 | 94.1 | 95.5 | 107 | 98.2 | 108 | 117 | 104 | 94.5 | 104 | 79.2 | 92 | 93.8 | 82.3 | 83.2 | 97.1 | 98.2 | 83 | 76.2 | activity at 10 µM (U251): 100%
